{"source": "paper PMC9162962", "about": "(European Journal of Medicinal Chemistry, 2022)", "biological_target": "SARS-CoV-2 M^pro (Severe acute respiratory syndrome coronavirus 2, UniProt P0DTD1)", "type": "biochemical", "data": [{"compound": "NC(=S)N/N=C/c1ccc(-c2ccc(C(=O)O)c(O)c2)o1", "note": "[F8–B6, (E)-4-(5-((2-carbamothioylhydrazono)methyl)furan-2-yl)-2-hydroxybenzoic acid]", "values": [{"measurement": "Effect of dithiothreitol (DTT) on inhibition", "value": "reverse the inhibitory effect"}]}]}
